Assay results: US4701455A, “Biopterin analogs” (Burroughs Wellcome Co., priority 1983, dated 1987)

Key:
Format in all cases: biochemical
[1] = target: T1, Phenylalanine hydroxylase (Rattus norvegicus, UniProt P04176); assay: Phenylalanine hydroxylase cofactor assay; conditions: rat liver enzyme; relative to tetrahydrobiopterin = 100
T1 construct: Phenylalanine hydroxylase was prepared from rat liver; from tissue; host or cells: rat liver
T1 sequence (P04176 1-453): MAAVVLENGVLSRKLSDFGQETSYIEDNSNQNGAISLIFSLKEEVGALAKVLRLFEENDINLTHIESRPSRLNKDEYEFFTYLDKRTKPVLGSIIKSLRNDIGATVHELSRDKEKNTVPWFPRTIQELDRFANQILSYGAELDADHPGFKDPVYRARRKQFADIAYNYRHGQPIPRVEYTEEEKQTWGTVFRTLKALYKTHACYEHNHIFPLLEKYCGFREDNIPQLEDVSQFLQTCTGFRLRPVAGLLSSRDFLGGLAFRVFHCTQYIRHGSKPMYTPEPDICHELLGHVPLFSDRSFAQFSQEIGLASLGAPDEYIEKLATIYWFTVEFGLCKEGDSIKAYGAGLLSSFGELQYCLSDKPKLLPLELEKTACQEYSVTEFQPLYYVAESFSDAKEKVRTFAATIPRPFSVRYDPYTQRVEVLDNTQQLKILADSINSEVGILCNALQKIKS
Description: Phenylalanine hydroxylase was measured as described in Shiman, R. et al., (J. Biol. Chem. 254: 11300 (1979)) except that the product of the reaction (tyrosine) was measured fluorometrically using the method of Waalkes, T. P. and Udenfriend, S. (J. Lab. Clin. Med. 50: 733 (1957). Phenylalanine hydroxylase was prepared from rat liver using hydrophobic chromatography (Shiman, R. et al. (J. Biol. Chem. 254: 11,300 (1979)). The specific activity of the enzyme, using BH4 as the co-factor, was 1.0 μmol/mg protein per minute at 37°.

[2] = test system: Dihydropteridine reductase; assay: Dihydropteridine reductase assay; conditions: quinonoid dihydro form; relative to tetrahydrobiopterin form = 100
Description: Dihydropteridine reductase was assayed by the method of Craine, et al., (J. Biol. Chem., 247, 6082 (1972)).

Tryptophan hydroxylase = target: T2, Tryptophan hydroxylase (Rattus norvegicus, UniProt Q8CGU9); assay: Tryptophan hydroxylase cofactor assay; conditions: relative to tetrahydrobiopterin = 100
T2 construct: crude 30,000×g supernatant; from tissue
T2 sequence (Q8CGU9 1-485): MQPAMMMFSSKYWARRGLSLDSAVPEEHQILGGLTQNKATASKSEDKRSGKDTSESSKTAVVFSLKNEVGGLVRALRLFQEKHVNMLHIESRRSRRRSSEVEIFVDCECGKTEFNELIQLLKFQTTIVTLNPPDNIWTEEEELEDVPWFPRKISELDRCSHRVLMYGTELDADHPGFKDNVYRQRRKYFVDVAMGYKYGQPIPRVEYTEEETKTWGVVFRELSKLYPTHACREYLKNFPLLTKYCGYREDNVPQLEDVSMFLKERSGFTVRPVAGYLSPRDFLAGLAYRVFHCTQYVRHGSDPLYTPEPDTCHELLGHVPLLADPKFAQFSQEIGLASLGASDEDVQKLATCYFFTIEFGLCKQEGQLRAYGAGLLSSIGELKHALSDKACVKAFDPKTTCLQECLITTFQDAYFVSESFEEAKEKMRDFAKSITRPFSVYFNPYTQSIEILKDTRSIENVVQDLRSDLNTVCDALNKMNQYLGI
Description: Trytophan hydroxylase was assayed according to a modification of the method of Renson J., et al (Biochem. Biophys. Acta 25: 504 (1966)). The preparation of tryptophan hydroxylase was a crude 30,000×g supernatant which had been desalted on a Sephadex G-25 (Trade Name) column (Boadle-Biker, M.C., Biochem Pharmacol. 28: 2129 (1979).

Tyrosine hydroxylase = Tyrosine hydroxylase (Homo sapiens, UniProt P07101); assay: Tyrosine hydroxylase cofactor assay; conditions: relative to tetrahydrobiopterin = 100
Tyrosine hydroxylase, sequence (P07101 whole entry): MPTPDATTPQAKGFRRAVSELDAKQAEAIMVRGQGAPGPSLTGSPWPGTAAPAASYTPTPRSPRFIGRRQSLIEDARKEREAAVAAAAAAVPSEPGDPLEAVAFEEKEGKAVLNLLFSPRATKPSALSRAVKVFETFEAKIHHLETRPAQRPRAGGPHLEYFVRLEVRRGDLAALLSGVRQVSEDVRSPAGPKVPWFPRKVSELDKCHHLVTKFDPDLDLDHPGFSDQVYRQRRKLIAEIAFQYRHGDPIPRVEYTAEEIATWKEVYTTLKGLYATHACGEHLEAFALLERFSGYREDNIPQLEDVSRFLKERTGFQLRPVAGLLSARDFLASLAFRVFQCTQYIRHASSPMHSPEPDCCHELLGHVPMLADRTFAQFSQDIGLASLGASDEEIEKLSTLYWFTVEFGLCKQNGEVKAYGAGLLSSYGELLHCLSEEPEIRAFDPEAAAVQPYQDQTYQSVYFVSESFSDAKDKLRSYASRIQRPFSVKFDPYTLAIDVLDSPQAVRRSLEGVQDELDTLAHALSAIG
Description: Tyrosine hydroxylate was partially purified through a 25-45% ammonium sulfate fraction. […] The enzyme was assayed by a modification of the method of Nagatsu, T., Levitt, M., and Udenfriend, S. (Anal. Biochem. 9, 122, (1964)) where the Dowex chromatography step was replaced by a charcoal extraction.

bovine liver DHFR = target: T3, bovine liver DHFR (Bos taurus, UniProt P00376); assay: Dihydrofolate reductase assay; conditions: for Dihydrofolate reductase V: 7,8-dihydro form, relative to 7,8-dihydrobiopterin = 100, bovine liver DHFR
T3 construct: bovine liver DHFR; from tissue; host or cells: bovine liver
T3 sequence (P00376 1-187): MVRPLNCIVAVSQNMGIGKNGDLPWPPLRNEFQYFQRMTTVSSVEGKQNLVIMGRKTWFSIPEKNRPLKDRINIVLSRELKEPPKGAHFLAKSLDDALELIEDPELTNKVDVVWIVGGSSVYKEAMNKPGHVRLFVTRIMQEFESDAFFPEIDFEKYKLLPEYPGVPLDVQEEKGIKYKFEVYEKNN
Description: These assays were carried out on the 7,8-dihydropterin analogs of the compounds of formula I which was tetrahydropterins. The 7,8-dihydropterinswere obtained commercially (in the case of dihydrobiopterin) or synthesized from the corresponding compound of formula I. Synthesis of 7,8-dihydropterins involved the combination of 0.27 μmole of a compound of formula I, 20 μg of horseradish peroxidase, 0.6 μmole of hydrogen peroxide in 0.1 ml of 0.5M potassium phosphate buffer, pH 7.5. After 3 min at room temperature, 10 μg of bovine liver catalase was added. The production of the 7,8-dihydropterin was verified by U.V. spectroscopy.
The assay was carried out with bovine liver DHFR using a modification of the method of Bailey and Ayling (J. Biol. Chem., 253, 1598 (1978)) where the desired dihydropterin replaced dihydrobiopterin, and the HPLC system used consisted of an anaerobic 0.1M acetic acid (with or without 10% acetonitrite) solvent on a 25 cm×4.6 mm Dupont TMS-Zorbax column. In our hands, dihydrobiopterin is reduced at a rate 2.5% that of the natural substrate dihydrofolate.

Phenylalanine hydroxylase Vmax [1] [%] | Dihydropteridine reductase Vmax [2] [%] | Tryptophan hydroxylase Vmax (Tryptophan hydroxylase) [%] | Tyrosine hydroxylase Vmax (Tyrosine hydroxylase) [%] | Dihydrofolate reductase V (bovine liver DHFR) [%] | Rate of reduction by DHFR relative to dihydrofolate (bovine liver DHFR; relative to natural substrate dihydrofolate) [%] | Compound
79 | 295 | 54 | 124 | 800 | – | COCC1CNc2nc(N)[nH]c(=O)c2N1 (racemic) [6-Methoxymethyl-tetrahydropterin, (+-)-2-Amino-5,6,7,8-tetrahydro-6-methoxymethyl-4(3H)-pteridinone]
– | – | – | – | – | 2.5 | C[C@H](O)[C@H](O)C1=Nc2c(nc(N)[nH]c2=O)NC1 [7,8-Dihydrobiopterin]
100 | 100 | 100 | 100 | 100 | – | C[C@H](O)[C@H](O)[C@H]1CNc2nc(N)[nH]c(=O)c2N1 [Tetrahydrobiopterin]
